The assay concerns the target human PKR1 receptors (Homo sapiens (Human), UniProt Q8TCW9). Nature of the assay: PKR1 antagonist assay: block of PK1-mediated intracellular calcium release (FLIPR Tetra). As to conditions: RBL2H3 cells expressing human PKR1; stimulation with PK1 at EC80; calcium fluorescence. It is filed as cell-based. In short, it runs like this: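 RBL2H3 cells expressing human PKR1, loaded 1 h at 37 °C with Calcium 5 dye plus 1 mM probenecid in HBSS/25 mM HEPES/0.1% BSA, pH 7.4. Compounds (0.32 nM–10 µM final) preincubated 10 min, then PK1 added at EC80; fluorescence read at 525 nm (excitation 485 nm).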

Among the data in patent publication US9790201B2, “Piperidine and azepine derivatives as prokineticin receptor modulators” (TAKEDA PHARMACEUTICAL COMPANY LIMITED, priority 2013, dated 2017) are IC50 values, retold here.

human PKR1 receptors, sequence (Q8TCW9 whole entry): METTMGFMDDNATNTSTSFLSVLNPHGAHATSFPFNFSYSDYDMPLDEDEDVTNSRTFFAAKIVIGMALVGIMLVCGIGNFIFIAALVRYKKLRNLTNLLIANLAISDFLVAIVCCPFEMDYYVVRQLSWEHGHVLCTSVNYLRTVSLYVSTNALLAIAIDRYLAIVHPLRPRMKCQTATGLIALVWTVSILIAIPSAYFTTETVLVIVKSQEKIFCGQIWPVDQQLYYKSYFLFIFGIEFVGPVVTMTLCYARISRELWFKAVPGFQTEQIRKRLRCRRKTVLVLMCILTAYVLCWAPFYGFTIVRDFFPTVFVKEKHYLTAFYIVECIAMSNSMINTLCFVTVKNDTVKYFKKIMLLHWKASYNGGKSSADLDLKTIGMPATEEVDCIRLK

Turning to `COc1ccc(C2CCCCN(C(=O)c3cnnc(N(C)C)c3)C2)cc1` (stereo not shown) [Example 114, 5-{[3-(4-Methoxyphenyl)azepan-1-yl]carbonyl}-N,N-dimethylpyridazin-3-amine], the half-maximal inhibitory concentration (IC50) (in general, the concentration at which inhibition is half-maximal) stood at 1430 nM.

On to `CN(C)c1cc(C(=O)N2CCCCC(c3ccc(Cl)cc3)C2)cnn1` (stereo not shown) [Example 115, 5-{[3-(4-Chlorophenyl)azepan-1-yl]carbonyl}-N,N-dimethylpyridazin-3-amine], for which the half-inhibitory concentration (IC50) amounted to 1440 nM.

With `Cc1cc(Cl)ccc1C1(O)CCCN(C(=O)c2ccnc(N(C)C)c2)C1` (stereo not shown) [Example 116, 3-(4-Chloro-2-methylphenyl)-1-{[2-(dimethylamino)pyridin-4-yl]carbonyl}piperidin-3-ol], the 50% inhibitory concentration (IC50) amounted to 1360 nM.

Turning to `CN(C)c1cc(C(=O)N2CCCC(O)(c3ccc(F)cc3)C2)ccn1` (stereo not shown) [Example 117, 1-{[2-(Dimethylamino)pyridin-4-yl]carbonyl}-3-(4-fluorophenyl)piperidin-3-ol], the IC50 came out at 3940 nM.
